Active and inactive are the calls of the source. How the calls were made is not given here.
System: CCRIS mutagenicity, Ames/micronucleus/aberration tests
Test: CCRIS mutagenicity studies

`Oc1ccc(O)cc1` was tested, and the mutagenic call (End Point: IN VITRO CHROMOSOMAL ABERRATIONS, Test System: CHINESE HAMSTER OVARY CELLS, Metabolic Activation: NONE) was “inactive; negative”, the mutagenic call (End Point: IN VITRO CHROMOSOMAL ABERRATIONS, Test System: CHINESE HAMSTER OVARY CELLS, Metabolic Activation: RAT, LIVER, S-9, AROCLOR 1254) was “active; positive” and the mutagenic call (End Point: IN VITRO CHROMOSOMAL ABERRATIONS, Test System: CHINESE HAMSTER V79 CELLS, Metabolic Activation: NONE) was “active; positive; effective at higher doses at ph 7.4”. The mutagenic call (End Point: IN VITRO CHROMOSOMAL ABERRATIONS, Test System: CHL/IU CELLS, Metabolic Activation: NONE) was “active; positive (structural changes)”, the mutagenic call (End Point: IN VITRO CHROMOSOMAL ABERRATIONS, Test System: HUMAN (MALE) PERIPHERAL BLOOD LYMPHOCYTES, Metabolic Activation: NONE) was “inactive; negative” and the mutagenic call (End Point: IN VITRO CHROMOSOMAL ABERRATIONS, Test System: HUMAN (MALE) PERIPHERAL BLOOD LYMPHOCYTES, Metabolic Activation: RAT, LIVER, S-9, AROCLOR 1254) was “inactive; negative”. For the same compound, the mutagenic call (End Point: IN VITRO CHROMOSOMAL ABERRATIONS, Test System: HUMAN PERIPHERAL LYMPHOCYTES, Metabolic Activation: NONE) was “active; positive (ploidy)”, the mutagenic call (End Point: IN VITRO CHROMOSOMAL ABERRATIONS, Test System: HUMAN PERIPHERAL LYMPHOCYTES, Metabolic Activation: NONE, Method: FISH) was “active; positive (ploidy); greater effects on certain chromosomes” and the mutagenic call (End Point: IN VITRO CHROMOSOMAL ABERRATIONS, Test System: HUMAN PERIPHERAL LYMPHOCYTES, Metabolic Activation: NONE, Method: FISH - DUAL COLOR PROBES) was “active; positive (structural and ploidy changes)”. For the same compound, the mutagenic call (End Point: IN VITRO CHROMOSOMAL ABERRATIONS, Test System: HUMAN PERIPHERAL LYMPHOCYTES, Metabolic Activation: NONE, Method: FISH - SINGLE COLOR) was “active; positive (ploidy)”, the mutagenic call (End Point: IN VITRO CHROMOSOMAL ABERRATIONS, Test System: HUMAN PERIPHERAL LYMPHOCYTES, Metabolic Activation: NONE, Method: FISH- DUAL COLOR PROBES) was “inactive; negative for translocations” and the mutagenic call (End Point: IN VITRO CHROMOSOMAL ABERRATIONS, Test System: V79, Metabolic Activation: RAT, LIVER, S-9, AROCLOR 1254) was “active; positive; effective at higher doses at ph 7.4”. The mutagenic call (End Point: IN VITRO MICRONUCLEUS, Test System: CHL/IU CELLS, Metabolic Activation: NONE) was “active; positive”, the mutagenic call (End Point: IN VITRO MICRONUCLEUS, Test System: HAMSTER V79 CELLS, Metabolic Activation: NONE) was “active; positive” and the mutagenic call (End Point: IN VITRO MICRONUCLEUS, Test System: HUMAN LYMPHOCYTES, Metabolic Activation: NONE) was “active; positive; individuals with gstm1 null genotype more affected than those with gst”. The mutagenic call (End Point: In vitro chromosomal aberrations, Test System: Chinese hamster lung (CHL/IU) cells, Metabolic Activation: Rat, Liver, S9, Phenobarbital and 5,6-benzoflavone) was “active; positive (structural changes and ploidy). toxic at 0.12 mg/ml”, the mutagenic call (Test System: AMES SALMONELLA TYPHIMURIUM, Strain/Indicator: TA97, Metabolic Activation: NONE, Method: STANDARD PLATE) was “inactive; negative” and the mutagenic call (Test System: AMES SALMONELLA TYPHIMURIUM, Strain/Indicator: TA97, Metabolic Activation: RAT, LIVER, S-9, PCB, Method: STANDARD PLATE) was “inactive; negative”. For the same compound, the mutagenic call (Test System: AMES SALMONELLA TYPHIMURIUM, Strain/Indicator: TA97, Metabolic Activation: RAT, LIVER, S-9, PHENOBARBITAL, Method: PREINCUBATION) was “active; positive”, the mutagenic call (Test System: AMES SALMONELLA TYPHIMURIUM, Strain/Indicator: TA98, Metabolic Activation: NONE, Method: PREINCUBATION) was “active; positive” and the mutagenic call (Test System: AMES SALMONELLA TYPHIMURIUM, Strain/Indicator: TA98, Metabolic Activation: NONE, Method: STANDARD PLATE) was “inactive; negative”. For the same compound, the mutagenic call (Test System: AMES SALMONELLA TYPHIMURIUM, Strain/Indicator: TA98, Metabolic Activation: RAT, LIVER, S-9, PCB, Method: STANDARD PLATE) was “inactive; negative”, the mutagenic call (Test System: AMES SALMONELLA TYPHIMURIUM, Strain/Indicator: TA98, Metabolic Activation: RAT, LIVER, S-9, PHENOBARBITAL, Method: PREINCUBATION) was “active; positive” and the mutagenic call (Test System: AMES SALMONELLA TYPHIMURIUM, Strain/Indicator: TA100, Metabolic Activation: NONE, Method: PREINCUBATION) was “active; positive”. For the same compound, the mutagenic call (Test System: AMES SALMONELLA TYPHIMURIUM, Strain/Indicator: TA100, Metabolic Activation: NONE, Method: STANDARD PLATE) was “inactive; negative”, the mutagenic call (Test System: AMES SALMONELLA TYPHIMURIUM, Strain/Indicator: TA100, Metabolic Activation: RAT, LIVER, S-9, PCB, Method: STANDARD PLATE) was “inactive; negative” and the mutagenic call (Test System: AMES SALMONELLA TYPHIMURIUM, Strain/Indicator: TA100, Metabolic Activation: RAT, LIVER, S-9, PHENOBARBITAL, Method: PREINCUBATION) was “active; positive”. The mutagenic call (Test System: AMES SALMONELLA TYPHIMURIUM, Strain/Indicator: TA102, Metabolic Activation: NONE, Method: STANDARD PLATE) was “active; positive”, the mutagenic call (Test System: AMES SALMONELLA TYPHIMURIUM, Strain/Indicator: TA104, Metabolic Activation: NONE, Method: PREINCUBATION) was “active; positive” and the mutagenic call (Test System: UDS SHE CELLS, Strain/Indicator: THY INCORP, Metabolic Activation: NONE, Method: LIQUID SCINTILLATION COUNTING) was “active; positive”.
